Measured values as given in BigSolDB 2.1.

COc1ccc(CC(=O)O)cc1
solubility (mole fraction)
Conditions | 283.15 K | 288.15 K | 293.15 K | 298.15 K | 303.15 K | 308.15 K | 313.15 K | 318.15 K | 323.15 K
in acetonitrile | 0.0423 | 0.0499 | 0.0587 | 0.0687 | 0.0803 | 0.0941 | 0.112 | 0.135 | 0.166
in anisole | 0.0323 | 0.0425 | 0.0519 | 0.0626 | 0.0737 | 0.0858 | 0.0999 | 0.118 | 0.139
in isopropanol | 0.114 | 0.142 | 0.169 | 0.198 | 0.228 | 0.258 | 0.289 | 0.323 | 0.351
in morpholine | 0.0094 | 0.0139 | 0.0185 | 0.0239 | 0.0293 | 0.0348 | 0.0404 | 0.0459 | 0.0503
in toluene | 0.0166 | 0.0209 | 0.0264 | 0.0337 | 0.0415 | 0.0522 | 0.0641 | 0.0784 | 0.0941
in water | 0.0011 | 0.002 | 0.0031 | 0.0043 | 0.0057 | 0.0069 | 0.0079 | 0.0092 | 0.0105
